Experimental data reported in the supplement of paper PMC10307832.

Assays:
Experiment in all cases: relative viability (nuclei count vs DMSO), 5 days (fraction); higher = more cells survive
AZD5582 + Pemetrexed = compound: C[C@@H](C(=O)N[C@@H](C1CCCCC1)C(=O)N2CCC[C@H]2C(=O)N[C@@H]3[C@@H](CC4=CC=CC=C34)OCC#CC#CCO[C@@H]5CC6=CC=CC=C6[C@@H]5NC(=O)[C@@H]7CCCN7C(=O)[C@H](C8CCCCC8)NC(=O)[C@H](C)NC)NC [AZD5582] + Nc1nc2[nH]cc(CCc3ccc(C(=O)N[C@@H](CCC(=O)O)C(=O)O)cc3)c2c(=O)[nH]1 [Pemetrexed] (partner 0.2 µM)
In short: (§1)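 Relative viability equals treated-well nuclei counts divided by vehicle-well nuclei counts. Counts came from 4× images of lung cancer cell lines grown in 1536-well plates for 5 days after pin-tool dosing on the day after seeding. Dosing used one drug alone or a fixed anchor-drug dose plus five library-drug doses (not always all listed) in √10 steps, and values are medians of duplicate plates.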

AZD5582 + Olaparib = compound: C[C@@H](C(=O)N[C@@H](C1CCCCC1)C(=O)N2CCC[C@H]2C(=O)N[C@@H]3[C@@H](CC4=CC=CC=C34)OCC#CC#CCO[C@@H]5CC6=CC=CC=C6[C@@H]5NC(=O)[C@@H]7CCCN7C(=O)[C@H](C8CCCCC8)NC(=O)[C@H](C)NC)NC [AZD5582] + O=C(c1cc(Cc2n[nH]c(=O)c3ccccc23)ccc1F)N1CCN(C(=O)C2CC2)CC1 [Olaparib] (partner 8 µM)
In short: as §1

[1] = compound: Cn1nnc2c(C(N)=O)ncn2c1=O [Temozolomide] + CS(=O)(=O)N1CCN(Cc2cc3nc(-c4cccc5[nH]ncc45)nc(N4CCOCC4)c3s2)CC1 [Pictilisib] (partner 1 µM)
In short: as §1

[2] = compound: Cn1nnc2c(C(N)=O)ncn2c1=O [Temozolomide] + O=C(CCCCCCC(=O)Nc1ccccc1)NO [Vorinostat] (partner 1 µM)
In short: as §1

| Cell Line | relative viability (AZD5582 + Pemetrexed; first compound 0.001581 µM) | relative viability (AZD5582 + Pemetrexed; first compound 0.005 µM) | relative viability (AZD5582 + Pemetrexed; first compound 0.01581 µM) | relative viability (AZD5582 + Pemetrexed; first compound 0.05 µM) | relative viability (AZD5582 + Olaparib; first compound 0.001581 µM) | relative viability (AZD5582 + Olaparib; first compound 0.005 µM) | relative viability (AZD5582 + Olaparib; first compound 0.01581 µM) | relative viability (AZD5582 + Olaparib; first compound 0.05 µM) | relative viability ([1]; first compound 0.2 µM) | relative viability ([1]; first compound 0.6325 µM) | relative viability ([1]; first compound 2 µM) | relative viability ([1]; first compound 6.325 µM) | relative viability ([1]; first compound 20 µM) | relative viability ([2]; first compound 0.2 µM) | relative viability ([2]; first compound 0.6325 µM) | relative viability ([2]; first compound 2 µM) | relative viability ([2]; first compound 6.325 µM) | relative viability ([2]; first compound 20 µM) |
| --- | --- | --- | --- | --- | --- | --- | --- | --- | --- | --- | --- | --- | --- | --- | --- | --- | --- | --- |
| 201T | 0.311 | 0.299 | 0.298 | 0.281 | 0.916 | 0.904 | 0.778 | 0.989 | 0.683 | 0.731 | 0.735 | 0.69 | 0.641 | 0.942 | 0.939 | 1.04 | 0.91 | 0.867 |
| A549 | – | – | – | – | 0.283 | 0.301 | 0.292 | 0.36 | 0.61 | 0.471 | 0.525 | 0.507 | 0.504 | – | – | – | – | – |
| A-427 | 0.931 | 0.92 | 0.978 | 0.89 | 0.678 | 0.716 | 0.729 | 0.59 | 0.816 | 0.733 | 0.797 | 0.417 | 0.329 | 0.883 | 0.896 | 0.837 | 0.685 | 0.569 |
| ABC-1 | – | – | – | – | 0.845 | 0.724 | 0.891 | 0.976 | 0.726 | 0.8 | 0.881 | 0.609 | 0.53 | 1.48 | 0.771 | 0.907 | 1.21 | 1.08 |
| BEN | 0.663 | 0.723 | 0.925 | 0.759 | 1.09 | 0.985 | 1.02 | 1.17 | 0.467 | 0.629 | 0.657 | 0.552 | 0.484 | 0.567 | 0.558 | 0.652 | 0.58 | 0.552 |
| CAL-12T | 0.792 | 0.811 | 1.11 | 0.967 | 0.558 | 0.534 | 0.636 | 0.373 | – | 0.434 | 0.425 | 0.334 | 0.391 | 0.889 | 0.881 | 0.885 | 0.781 | 0.628 |
| COR-L23 | 0.201 | 0.206 | 0.191 | 0.196 | 0.307 | 0.378 | 0.32 | 0.329 | 1.01 | 0.771 | 0.961 | 0.829 | 0.715 | 0.521 | 0.531 | 0.521 | 0.476 | 0.371 |
| COR-L 105 | 1.09 | 1.11 | 1 | 1.25 | 0.619 | 0.673 | 0.729 | 0.732 | 0.408 | 0.366 | 0.433 | 0.39 | 0.273 | 0.769 | 0.645 | 0.922 | 0.837 | 0.7 |
| Calu-6 | – | – | – | – | 0.489 | – | 0.629 | 0.258 | 1.21 | 0.939 | 0.883 | 0.867 | 0.974 | – | – | – | – | – |
| ChaGo-K-1 | 0.243 | 0.267 | 0.254 | 0.276 | 0.435 | 0.41 | 0.421 | 0.442 | 0.784 | 0.904 | 1.02 | 0.635 | 0.581 | 0.85 | 0.724 | 0.719 | 0.738 | 0.733 |
